Data published in patent US20160280699A1, “SUBSTITUTED PHENYLALANINE DERIVATIVES” (BAYER PHARMA AKTIENGESELLSCHAFT, priority 2013, published 2016).
Where a name gives a salt, the structure may show the parent alone.

Assays:
human factor XIa = biological target: T1, human factor XIa (Homo sapiens, UniProt P03951); assay: Measurement of FXIa inhibition (fluorogenic peptide substrate Boc-Glu(OBzl)-Ala-Arg-AMC); assay type: biochemical; details: factor XIa from Kordia, 15 min preincubation, 30 min at 22° C., fluorescence
T1 construct: purchased Kordia
Procedure: The factor XIa inhibition of the substances according to the invention is determined using a biochemical test system which utilizes the reaction of a peptidic factor XIa substrate to determine the enzymatic activity of human factor XIa. Here, factor XIa cleaves from the peptic factor XIa substrate the C-terminal aminomethylcoumarin (AMC), the fluorescence of which is measured. The determinations are carried out in microtitre plates.
Test substances are dissolved in dimethyl sulphoxide and serially diluted in dimethyl sulphoxide (3000 μM to 0.0078 μM; resulting final concentrations in the test: 50 μM to 0.00013 μM). In each case 1 μl of the diluted substance solutions is placed into the wells of white microtitre plates from Greiner (384 wells). Subsequently, the following are added successively: 20 μl of assay buffer (50 mmol/l Tris buffer pH 7.4; 100 mmol/l sodium chloride; 5 mmol/l calcium chloride; 0.1% bovine serum albumin) and 20 μl of factor XIa from Kordia (0.45 nM in assay buffer). After 15 min of incubation, the enzyme reaction is started by addition of 20 μl of the factor XIa substrate Boc-Glu(OBzl)-Ala-Arg-AMC dissolved in assay buffer (10 μM in assay buffer) from Bachem, the mixture is incubated at room temperature (22° C.) for 30 min and fluorescence is then measured (excitation: 360 nm, emission: 460 nm). The measured emissions of the test batches with test substance are compared to those of control batches without test substance (only dimethyl sulphoxide instead of test substance in dimethyl sulphoxide), and IC50 values are calculated from the concentration/activity relationships.

human and animal plasma = assay: Determination of anticoagulatory activity: activated partial thromboplastin time (aPTT) in plasma; assay type: biochemical; details: concentration of test substance which brings about a 1.5-fold extension of the aPTT, 37° C., C.K. Prest kit
Procedure: The anticoagulatory activity of the test substances is determined in vitro in human and animal plasma (for example mouse, rat, rabbit, pig and dog plasma). To this end, blood is drawn off in a mixing ratio of sodium citrate/blood of 1:9 using a 0.11 molar sodium citrate solution as receiver. Immediately after the blood has been drawn off, it is mixed thoroughly and centrifuged at about 4000 g for 15 minutes. The supernatant is pipetted off.
The activated partial thromboplastin time (aPTT) is determined in the presence of varying concentrations of test substance or the corresponding solvent using a commercial test kit (C.K. Prest from Diagnostica Stago). The test compounds are incubated with the plasma and the PTT reagent (cephalin, kaolin) at 37° C. for 3 minutes. Coagulation is then started by addition of a 25 mM aqueous calcium chloride solution, and the time when coagulation occurs is determined. The concentration of test substance which brings about a 1.5-fold extension of the aPTT is determined Activity data from this test are listed in Table B below: […]

T1 sequence (P03951 388-625 limits assumed): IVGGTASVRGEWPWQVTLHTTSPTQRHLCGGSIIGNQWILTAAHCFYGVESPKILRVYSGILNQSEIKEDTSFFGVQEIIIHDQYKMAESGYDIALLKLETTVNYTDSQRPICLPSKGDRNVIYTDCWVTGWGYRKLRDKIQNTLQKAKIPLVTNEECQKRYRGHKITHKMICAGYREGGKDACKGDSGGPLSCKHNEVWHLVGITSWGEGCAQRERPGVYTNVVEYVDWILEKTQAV
T1 sequence (P03951 19-387 partner limits assumed): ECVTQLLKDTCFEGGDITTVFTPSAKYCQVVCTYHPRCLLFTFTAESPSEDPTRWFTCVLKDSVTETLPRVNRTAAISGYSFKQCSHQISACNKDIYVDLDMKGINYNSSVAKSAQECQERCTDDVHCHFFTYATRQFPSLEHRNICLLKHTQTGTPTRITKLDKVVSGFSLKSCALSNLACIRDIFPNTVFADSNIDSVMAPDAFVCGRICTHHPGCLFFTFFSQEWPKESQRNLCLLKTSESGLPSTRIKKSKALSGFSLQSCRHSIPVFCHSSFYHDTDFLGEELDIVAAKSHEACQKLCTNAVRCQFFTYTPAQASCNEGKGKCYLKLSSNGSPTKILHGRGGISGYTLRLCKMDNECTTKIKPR

Row | IC50 (human factor XIa) | SMILES | aPTT (human and animal plasma)
1 | 5.7 nM | NC[C@H]1CC[C@H](C(=O)N[C@@H](Cc2ccc(-c3cnc(N4CCOCC4)nc3)cc2)C(=O)Nc2ccc(-c3nnn[nH]3)cc2)CC1 [Example 1, N-alpha-{[trans-4-(Aminomethyl)cyclohexyl]carbonyl}-4-[2-(morpholin-4-yl)pyrimidin-5-yl]-N-[4-(1H-tetrazol-5-yl)phenyl]-L-phenylalaninamide hydrochloride] | –
2 | 5.3 nM | CN1CCN(S(=O)(=O)c2cncc(-c3ccc(C[C@H](NC(=O)[C@H]4CC[C@H](CN)CC4)C(=O)Nc4ccc(-c5nnn[nH]5)cc4)cc3)c2)CC1 [Example 2, N-alpha-{[trans-4-(Aminomethyl)cyclohexyl]carbonyl}-4-{5-[(4-methylpiperazin-1-yl)sulphonyl]pyridin-3-yl}-N-[4-(1H-tetrazol-5-yl)phenyl]-L-phenylalaninamide hydrochloride] | 0.28 µmol/L
3 | 2.3 nM | NC[C@H]1CC[C@H](C(=O)N[C@@H](Cc2ccc(-c3cccnc3Cl)cc2)C(=O)Nc2ccc(-c3nnn[nH]3)cc2)CC1 [Example 3, N-alpha-{[trans-4-(Aminomethyl)cyclohexyl]carbonyl}-4-(2-chloropyridin-3-yl)-N-[4-(1H-tetrazol-5-yl)phenyl]-L-phenylalaninamide hydrochloride] | 0.24 µmol/L
4 | 3.8 nM | CN(C)c1ccc(-c2ccc(C[C@H](NC(=O)[C@H]3CC[C@H](CN)CC3)C(=O)Nc3ccc(-c4nnn[nH]4)cc3)cc2)cn1 [Example 4, N-alpha-{[trans-4-(Aminomethyl)cyclohexyl]carbonyl}-4-[6-(dimethylamino)pyridin-3-yl]-N-[4-(1H-tetrazol-5-yl)phenyl]-L-phenylalaninamide hydrochloride] | 0.23 µmol/L
5 | 7 nM | NC[C@H]1CC[C@H](C(=O)N[C@@H](Cc2ccc(-c3cccnc3)cc2)C(=O)Nc2ccc(-c3nn[nH]n3)cc2)CC1 [Example 5, N-alpha-{[trans-4-(Aminomethyl)cyclohexyl]carbonyl}-4-pyridin-3-yl-N-[4-(2H-tetrazol-5-yl)phenyl]phenylalaninamide] | 0.35 µmol/L
6 | 15 nM | CN(C)CCCOc1ccc(-c2ccc(C[C@H](NC(=O)[C@H]3CC[C@H](CN)CC3)C(=O)Nc3ccc(-c4nn[nH]n4)cc3)cc2)cn1 [Example 6, N-alpha-{[trans-4-(Aminomethyl)cyclohexyl]carbonyl}-4-{6-[3-(dimethylamino)propoxy]pyridin-3-yl}-N-[4-(2H-tetrazol-5-yl)phenyl]-L-phenylalaninamide hydrochloride] | –
7 | 2.2 nM | NC[C@H]1CC[C@H](C(=O)N[C@@H](Cc2ccc(-c3ccc(N4CCOCC4)nc3)cc2)C(=O)Nc2ccc(-c3nn[nH]n3)cc2)CC1 [Example 7, N-alpha-{[trans-4-(Aminomethyl)cyclohexyl]carbonyl}-4-[6-(morpholin-4-yl)pyridin-3-yl]-N-[4-(2H-tetrazol-5-yl)phenyl]-L-phenylalaninamide hydrochloride] | 0.29 µmol/L
8 | 6.2 nM | NC[C@H]1CC[C@H](C(=O)N[C@@H](Cc2ccc(-c3cncc(Cl)c3)cc2)C(=O)Nc2ccc(-c3nn[nH]n3)cc2)CC1 [Example 10, N-alpha-{[trans-4-(Aminomethyl)cyclohexyl]carbonyl}-4-(5-chloropyridin-3-yl)-N-[4-(2H-tetrazol-5-yl)phenyl]-L-phenylalaninamide hydrochloride] | –
9 | 5.2 nM | NC[C@H]1CC[C@H](C(=O)N[C@@H](Cc2ccc(-c3ccncc3)cc2)C(=O)Nc2ccc(-c3nn[nH]n3)cc2)CC1 [Example 11, N-alpha-{[trans-4-(Aminomethyl)cyclohexyl]carbonyl}-4-pyridin-4-yl-N-[4-(2H-tetrazol-5-yl)phenyl]-L-phenylalaninamide hydrochloride] | 0.24 µmol/L
10 | 5.9 nM | NC[C@H]1CC[C@H](C(=O)N[C@@H](Cc2ccc(-c3cnccc3Cl)cc2)C(=O)Nc2ccc(-c3nn[nH]n3)cc2)CC1 [Example 12, N-alpha-{[trans-4-(Aminomethyl)cyclohexyl]carbonyl}-4-(4-chloropyridin-3-yl)-N-[4-(2H-tetrazol-5-yl)phenyl]-L-phenylalaninamide hydrochloride] | 0.43 µmol/L
11 | 2.1 nM | Cc1ncccc1-c1ccc(C[C@H](NC(=O)[C@H]2CC[C@H](CN)CC2)C(=O)Nc2ccc(-c3nn[nH]n3)cc2)cc1 [Example 13, N-alpha-{[trans-4-(Aminomethyl)cyclohexyl]carbonyl}-4-(2-methylpyridin-3-yl)-N-[4-(2H-tetrazol-5-yl)phenyl]-L-phenylalaninamide hydrochloride] | 0.13 µmol/L
12 | 2.8 nM | NC[C@H]1CC[C@H](C(=O)N[C@@H](Cc2ccc(-c3ccncc3Cl)cc2)C(=O)Nc2ccc(-c3nn[nH]n3)cc2)CC1 [Example 15, N-alpha-{[trans-4-(Aminomethyl)cyclohexyl]carbonyl}-4-(3-chloropyridin-4-yl)-N-[4-(2H-tetrazol-5-yl)phenyl]-L-phenylalaninamide hydrochloride] | 0.14 µmol/L
13 | 13 nM | NC[C@H]1CC[C@H](C(=O)N[C@@H](Cc2ccc(-c3ccc(NCCN4CCOCC4)nc3)cc2)C(=O)Nc2ccc(-c3nn[nH]n3)cc2)CC1 [Example 16, N-alpha-{[trans-4-(Aminomethyl)cyclohexyl]carbonyl}-4-(6-{[2-(morpholin-4-yl)ethyl]amino}pyridin-3-yl)-N-[4-(2H-tetrazol-5-yl)phenyl]-L-phenylalaninamide hydrochloride] | 0.33 µmol/L
14 | 10 nM | NC[C@H]1CC[C@H](C(=O)N[C@@H](Cc2ccc(-c3ccc(O)nc3)cc2)C(=O)Nc2ccc(-c3nn[nH]n3)cc2)CC1 [Example 17, N-alpha-{[trans-4-(Aminomethyl)cyclohexyl]carbonyl}-4-(6-hydroxypyridin-3-yl)-N-[4-(2H-tetrazol-5-yl)phenyl]-L-phenylalaninamide hydrochloride] | –
15 | 7.8 nM | COc1ccc(-c2ccc(C[C@H](NC(=O)[C@H]3CC[C@H](CN)CC3)C(=O)Nc3ccc4cn[nH]c4c3)cc2)c(C)n1 [Example 28, N-alpha-{[trans-4-(Aminomethyl)cyclohexyl]carbonyl}-N-1H-indazol-6-yl-4-(6-methoxy-2-methylpyridin-3-yl)-L-phenylalaninamide hydrochloride] | –
16 | 7.2 nM | NC[C@H]1CC[C@H](C(=O)N[C@@H](Cc2ccc(-c3ccnc(N4CCOCC4)c3)cc2)C(=O)Nc2ccc3c(=O)[nH][nH]c3c2)CC1 [Example 36, N-alpha-{[trans-4-(Aminomethyl)cyclohexyl]carbonyl}-4-[2-(morpholin-4-yl)pyridin-4-yl]-N-(3-oxo-2,3-dihydro-1H-indazol-6-yl)-L-phenylalaninamide hydrochloride] | –
17 | 4.8 nM | COc1ccc(-c2ccc(C[C@H](NC(=O)[C@H]3CC[C@H](CN)CC3)C(=O)Nc3ccc(-c4nn[nH]n4)cc3)cc2)cn1 [Example 38, N-alpha-{[trans-4-(Aminomethyl)cyclohexyl]carbonyl}-4-(6-methoxypyridin-3-yl)-N-[4-(2H-tetrazol-5-yl)phenyl]-L-phenylalaninamide] | –
18 | 3 nM | CCOc1ncccc1-c1ccc(C[C@H](NC(=O)[C@H]2CC[C@H](CN)CC2)C(=O)Nc2ccc(-c3nn[nH]n3)cc2)cc1 [Example 42, N-alpha-{[trans-4-(Aminomethyl)cyclohexyl]carbonyl}-4-(2-ethoxypyridin-3-yl)-N-[4-(2H-tetrazol-5-yl)phenyl]-L-phenylalaninamide hydrochloride] | –

Row | SMILES | IC50 (human factor XIa) | aPTT (human and animal plasma)
19 | NC[C@H]1CC[C@H](C(=O)N[C@@H](Cc2ccc(-c3ccncc3)cc2)C(=O)Nc2ccc(-c3noc(=O)[nH]3)cc2)CC1 [Example 8, N-alpha-{[trans-4-(Aminomethyl)cyclohexyl]carbonyl}-N-[4-(5-oxo-4,5-dihydro-1,2,4-oxadiazol-3-yl)phenyl]-4-pyridin-4-yl-L-phenylalaninamide hydrochloride] | 9.2 nM | 0.15 µmol/L
20 | NC[C@H]1CC[C@H](C(=O)N[C@@H](Cc2ccc(-c3cccnc3)cc2)C(=O)Nc2ccc(-c3noc(=O)[nH]3)cc2)CC1 [Example 14, N-alpha-{[trans-4-(Aminomethyl)cyclohexyl]carbonyl}-N-[4-(5-oxo-4,5-dihydro-1,2,4-oxadiazol-3-yl)phenyl]-4-pyridin-3-yl-L-phenylalaninamide hydrochloride] | 8.5 nM | 0.28 µmol/L
